Data taken from the kinase profiling compilation of Christmann-Franck et al. (2016).
Several values for one entry are separate records, joined by “and”; a condition that tells them apart may be missing. Identical values can stand only once.

Columns and labels:
Experiment in all cases: radiometric filter-binding kinase assay
PIM1 (human) = PIM1 (human) (UniProt P11309); conditions: compound 100.0 µM; ATP 20 µM
PRKACA (human) = PRKACA (human) (UniProt P17612); conditions: compound 100.0 µM; ATP 20 µM
MARK1 (human) = MARK1 (human) (UniProt Q9P0L2); conditions: compound 100.0 µM; ATP 20 µM
CSK (human) = CSK (human) (UniProt P41240); conditions: compound 100.0 µM; ATP 20 µM
MAP3K1 (human) = MAP3K1 (human) (UniProt Q13233); conditions: compound 100.0 µM; ATP 50 µM
MAP3K7 TAB1 (human) = MAP3K7 TAB1 (human) (UniProt Q15750+O43318); conditions: compound 100.0 µM; ATP 5 µM
MARK4 (human) = MARK4 (human) (UniProt Q96L34); conditions: compound 100.0 µM; ATP 50 µM
FGFR1 (human) = FGFR1 (human) (UniProt P11362); conditions: compound 100.0 µM; ATP 20 µM
CLK2 (human) = CLK2 (human) (UniProt P49760); conditions: compound 100.0 µM; ATP 5 µM
IRAK4 (human) = IRAK4 (human) (UniProt Q9NWZ3); conditions: compound 100.0 µM; ATP 20 µM
Chain of IRAK4 (human) (Q9NWZ3 whole entry, looked up): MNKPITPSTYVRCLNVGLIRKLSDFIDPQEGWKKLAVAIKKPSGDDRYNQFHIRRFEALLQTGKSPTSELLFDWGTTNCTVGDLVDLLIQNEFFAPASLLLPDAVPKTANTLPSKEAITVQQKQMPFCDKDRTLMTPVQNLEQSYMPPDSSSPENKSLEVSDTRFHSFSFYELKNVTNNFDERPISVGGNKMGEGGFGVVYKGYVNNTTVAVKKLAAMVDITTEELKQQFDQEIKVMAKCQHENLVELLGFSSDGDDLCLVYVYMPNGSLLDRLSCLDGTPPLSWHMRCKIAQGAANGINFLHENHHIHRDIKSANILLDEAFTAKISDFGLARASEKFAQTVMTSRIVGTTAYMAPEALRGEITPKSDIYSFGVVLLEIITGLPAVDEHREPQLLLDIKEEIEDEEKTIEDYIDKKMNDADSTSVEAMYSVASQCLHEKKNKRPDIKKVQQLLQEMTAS

RPS6KA1 KD1 KD2 (human) = RPS6KA1 KD1 KD2 (human) (UniProt Q15418); conditions: compound 100.0 µM; ATP 50 µM
STK16 (human) = STK16 (human) (UniProt O75716); conditions: compound 100.0 µM; ATP 50 µM
Chain of STK16 (human) (O75716 whole entry, looked up): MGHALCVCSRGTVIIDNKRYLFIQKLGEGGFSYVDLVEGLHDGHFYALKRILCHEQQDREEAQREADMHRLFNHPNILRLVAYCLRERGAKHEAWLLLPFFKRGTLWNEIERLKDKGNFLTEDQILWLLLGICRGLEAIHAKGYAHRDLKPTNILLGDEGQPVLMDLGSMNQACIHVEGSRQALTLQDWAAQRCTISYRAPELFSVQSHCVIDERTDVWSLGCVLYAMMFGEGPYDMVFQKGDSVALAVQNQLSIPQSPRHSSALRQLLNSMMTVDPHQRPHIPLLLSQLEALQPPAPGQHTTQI

BRSK1 (human) = BRSK1 (human) (UniProt Q8TDC3); conditions: compound 100.0 µM; ATP 20 µM
MST4 (human) = MST4 (human) (UniProt Q9P289); conditions: compound 100.0 µM; ATP 20 µM
MAPK8 (human) = MAPK8 (human) (UniProt P45983); conditions: compound 100.0 µM; ATP 20 µM
MAP2K2 (human) = MAP2K2 (human) (UniProt P36507); conditions: compound 100.0 µM; ATP 5 µM
TAOK1 (human) = TAOK1 (human) (UniProt Q7L7X3); conditions: compound 100.0 µM; ATP 20 µM
ROCK2 (rat) = conditions: compound 100.0 µM; ATP 20 µM; accession and sequence are those of the human protein
PLK1 (human) = PLK1 (human) (UniProt P53350); conditions: compound 100.0 µM; ATP 5 µM
MAPK12 (human) = MAPK12 (human) (UniProt P53778); conditions: compound 100.0 µM; ATP 5 µM
Chain of MAPK12 (human) (P53778 whole entry, looked up): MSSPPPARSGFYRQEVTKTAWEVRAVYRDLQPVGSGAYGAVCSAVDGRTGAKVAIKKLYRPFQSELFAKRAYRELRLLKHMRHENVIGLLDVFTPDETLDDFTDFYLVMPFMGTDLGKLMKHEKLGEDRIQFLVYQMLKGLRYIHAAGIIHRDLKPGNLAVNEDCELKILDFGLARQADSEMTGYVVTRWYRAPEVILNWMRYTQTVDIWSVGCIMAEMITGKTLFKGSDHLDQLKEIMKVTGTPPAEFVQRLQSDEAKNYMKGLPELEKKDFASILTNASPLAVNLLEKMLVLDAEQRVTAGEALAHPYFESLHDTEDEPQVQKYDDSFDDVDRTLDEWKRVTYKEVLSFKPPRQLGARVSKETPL

MAPK11 (human) = MAPK11 (human) (UniProt Q15759); conditions: compound 100.0 µM; ATP 20 µM
EPHA4 (human) = EPHA4 (human) (UniProt P54764); conditions: compound 100.0 µM; ATP 50 µM
PRKCZ (human) = PRKCZ (human) (UniProt Q05513); conditions: compound 100.0 µM; ATP 5 µM
EEF2K (human) = EEF2K (human) (UniProt O00418); conditions: compound 100.0 µM; ATP 5 µM
EPHB4 (human) = EPHB4 (human) (UniProt P54760); conditions: compound 100.0 µM; ATP 5 µM
LCK (mouse) = conditions: compound 100.0 µM; ATP 50 µM; accession and sequence are those of the human protein
EPHB3 (human) = EPHB3 (human) (UniProt P54753); conditions: compound 100.0 µM; ATP 20 µM
Chain of EPHB3 (human) (P54753 whole entry, looked up): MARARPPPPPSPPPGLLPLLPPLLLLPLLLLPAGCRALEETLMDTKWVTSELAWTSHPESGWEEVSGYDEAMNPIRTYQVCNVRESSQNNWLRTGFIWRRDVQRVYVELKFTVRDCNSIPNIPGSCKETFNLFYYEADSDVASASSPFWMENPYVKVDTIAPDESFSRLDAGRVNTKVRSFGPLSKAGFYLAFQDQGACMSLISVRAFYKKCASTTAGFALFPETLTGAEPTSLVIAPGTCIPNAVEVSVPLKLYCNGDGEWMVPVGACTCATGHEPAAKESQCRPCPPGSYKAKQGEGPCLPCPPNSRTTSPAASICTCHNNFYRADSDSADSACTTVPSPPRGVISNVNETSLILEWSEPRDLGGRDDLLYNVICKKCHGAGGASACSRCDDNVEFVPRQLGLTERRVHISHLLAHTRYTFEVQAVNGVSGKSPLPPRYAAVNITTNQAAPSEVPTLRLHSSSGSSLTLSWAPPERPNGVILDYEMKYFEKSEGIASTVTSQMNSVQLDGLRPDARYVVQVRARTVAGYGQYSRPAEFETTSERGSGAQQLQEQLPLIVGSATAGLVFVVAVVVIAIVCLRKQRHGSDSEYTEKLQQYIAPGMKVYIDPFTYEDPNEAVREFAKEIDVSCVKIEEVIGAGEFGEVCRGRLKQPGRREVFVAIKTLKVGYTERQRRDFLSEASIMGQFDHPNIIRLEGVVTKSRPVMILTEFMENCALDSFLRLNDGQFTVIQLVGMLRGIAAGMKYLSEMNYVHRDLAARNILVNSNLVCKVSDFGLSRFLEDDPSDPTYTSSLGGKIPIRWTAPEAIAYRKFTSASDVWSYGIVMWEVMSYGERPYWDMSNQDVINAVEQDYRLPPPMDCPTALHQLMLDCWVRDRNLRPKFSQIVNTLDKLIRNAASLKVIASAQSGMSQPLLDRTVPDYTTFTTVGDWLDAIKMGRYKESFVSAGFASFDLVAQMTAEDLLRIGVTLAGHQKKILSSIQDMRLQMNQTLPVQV

GCK (human) = GCK (human) (UniProt Q12851); conditions: compound 100.0 µM; ATP 20 µM
PAK6 (human) = PAK6 (human) (UniProt Q9NQU5); conditions: compound 100.0 µM; ATP 20 µM
MARK3 (human) = MARK3 (human) (UniProt P27448); conditions: compound 100.0 µM; ATP 5 µM
STK3 (human) = STK3 (human) (UniProt Q13188); conditions: compound 100.0 µM; ATP 20 µM
PTK6 (human) = PTK6 (human) (UniProt Q13882); conditions: compound 100.0 µM; ATP 20 µM
Chain of PTK6 (human) (Q13882 whole entry, looked up): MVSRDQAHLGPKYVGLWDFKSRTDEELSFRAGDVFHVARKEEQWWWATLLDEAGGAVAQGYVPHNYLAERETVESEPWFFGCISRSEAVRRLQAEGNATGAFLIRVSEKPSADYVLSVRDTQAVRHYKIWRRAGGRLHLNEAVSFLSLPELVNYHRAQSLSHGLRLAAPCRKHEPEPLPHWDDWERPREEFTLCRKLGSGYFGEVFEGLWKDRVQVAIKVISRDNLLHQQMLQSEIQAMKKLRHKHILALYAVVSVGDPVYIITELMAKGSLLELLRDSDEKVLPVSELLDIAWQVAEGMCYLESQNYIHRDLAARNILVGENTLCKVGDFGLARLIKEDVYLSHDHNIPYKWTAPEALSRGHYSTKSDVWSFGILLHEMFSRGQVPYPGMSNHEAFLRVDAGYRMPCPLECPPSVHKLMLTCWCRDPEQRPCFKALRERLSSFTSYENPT

MKNK1 (human) = MKNK1 (human) (UniProt Q9BUB5); conditions: compound 100.0 µM; ATP 50 µM
MAP3K5 (human) = MAP3K5 (human) (UniProt Q99683); conditions: compound 100.0 µM; ATP 50 µM
Chain of MAP3K5 (human) (Q99683 whole entry, looked up): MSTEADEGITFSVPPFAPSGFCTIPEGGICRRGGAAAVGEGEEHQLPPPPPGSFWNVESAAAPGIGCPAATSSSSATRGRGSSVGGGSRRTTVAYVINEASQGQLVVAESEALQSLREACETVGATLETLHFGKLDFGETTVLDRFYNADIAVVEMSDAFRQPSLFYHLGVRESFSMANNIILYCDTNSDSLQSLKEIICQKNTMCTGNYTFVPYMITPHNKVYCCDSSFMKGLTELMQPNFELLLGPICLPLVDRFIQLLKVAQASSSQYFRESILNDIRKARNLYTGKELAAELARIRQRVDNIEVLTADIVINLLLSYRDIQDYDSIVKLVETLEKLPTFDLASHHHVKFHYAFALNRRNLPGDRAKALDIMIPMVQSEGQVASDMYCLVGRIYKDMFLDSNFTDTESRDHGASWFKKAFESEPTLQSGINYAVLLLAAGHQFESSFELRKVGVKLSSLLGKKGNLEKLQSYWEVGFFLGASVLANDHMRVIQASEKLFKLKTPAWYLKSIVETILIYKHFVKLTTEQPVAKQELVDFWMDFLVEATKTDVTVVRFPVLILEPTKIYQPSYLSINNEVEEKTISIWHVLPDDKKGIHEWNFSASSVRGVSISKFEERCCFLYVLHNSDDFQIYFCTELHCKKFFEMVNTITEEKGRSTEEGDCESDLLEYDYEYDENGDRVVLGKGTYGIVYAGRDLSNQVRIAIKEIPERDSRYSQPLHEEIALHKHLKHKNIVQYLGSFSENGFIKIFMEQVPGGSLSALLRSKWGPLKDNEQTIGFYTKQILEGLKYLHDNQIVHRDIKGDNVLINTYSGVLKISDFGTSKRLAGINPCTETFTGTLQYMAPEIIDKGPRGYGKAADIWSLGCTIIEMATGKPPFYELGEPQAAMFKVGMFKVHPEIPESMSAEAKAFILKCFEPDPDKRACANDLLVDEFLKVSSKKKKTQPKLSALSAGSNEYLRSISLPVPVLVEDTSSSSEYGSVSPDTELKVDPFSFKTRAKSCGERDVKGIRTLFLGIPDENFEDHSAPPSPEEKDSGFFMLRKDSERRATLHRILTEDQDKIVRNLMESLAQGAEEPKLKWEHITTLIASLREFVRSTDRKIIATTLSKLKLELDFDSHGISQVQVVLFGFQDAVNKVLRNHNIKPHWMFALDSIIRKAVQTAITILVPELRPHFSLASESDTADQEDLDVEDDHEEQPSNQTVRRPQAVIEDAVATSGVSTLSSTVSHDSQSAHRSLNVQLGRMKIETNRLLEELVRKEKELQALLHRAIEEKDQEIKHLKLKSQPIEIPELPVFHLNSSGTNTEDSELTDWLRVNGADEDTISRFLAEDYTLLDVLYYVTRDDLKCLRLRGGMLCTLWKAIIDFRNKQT

EPHA2 (human) = EPHA2 (human) (UniProt P29317); conditions: compound 100.0 µM; ATP 50 µM
Chain of EPHA2 (human) (P29317 whole entry, looked up): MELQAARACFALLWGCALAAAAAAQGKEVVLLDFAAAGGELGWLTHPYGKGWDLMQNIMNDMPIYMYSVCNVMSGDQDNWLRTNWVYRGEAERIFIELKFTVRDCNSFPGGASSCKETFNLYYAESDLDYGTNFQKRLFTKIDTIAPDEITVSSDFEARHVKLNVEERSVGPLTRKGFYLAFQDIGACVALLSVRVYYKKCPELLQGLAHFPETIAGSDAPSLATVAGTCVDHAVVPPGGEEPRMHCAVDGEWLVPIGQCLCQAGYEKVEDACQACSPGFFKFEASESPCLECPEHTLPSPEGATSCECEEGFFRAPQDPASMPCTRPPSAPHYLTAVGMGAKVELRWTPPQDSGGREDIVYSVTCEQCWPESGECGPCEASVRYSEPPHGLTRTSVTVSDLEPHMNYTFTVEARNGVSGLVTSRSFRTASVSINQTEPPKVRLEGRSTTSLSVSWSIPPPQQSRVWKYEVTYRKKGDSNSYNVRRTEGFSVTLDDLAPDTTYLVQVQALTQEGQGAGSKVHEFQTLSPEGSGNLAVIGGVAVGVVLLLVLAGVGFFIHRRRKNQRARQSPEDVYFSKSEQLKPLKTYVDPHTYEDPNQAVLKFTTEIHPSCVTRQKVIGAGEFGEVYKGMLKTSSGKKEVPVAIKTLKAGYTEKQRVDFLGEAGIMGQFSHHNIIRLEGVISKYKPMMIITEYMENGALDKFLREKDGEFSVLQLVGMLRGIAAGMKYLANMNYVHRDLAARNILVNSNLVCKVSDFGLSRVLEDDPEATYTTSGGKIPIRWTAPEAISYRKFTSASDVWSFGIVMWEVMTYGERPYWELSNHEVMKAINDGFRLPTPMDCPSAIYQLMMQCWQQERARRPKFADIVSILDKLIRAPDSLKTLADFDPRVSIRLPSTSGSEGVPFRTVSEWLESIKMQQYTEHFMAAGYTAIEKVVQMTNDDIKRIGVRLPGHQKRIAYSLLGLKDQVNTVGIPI

Row | inhibition (PIM1 (human)) [%] | inhibition (PRKACA (human)) | inhibition (MARK1 (human)) [%] | inhibition (CSK (human)) [%] | inhibition (MAP3K1 (human)) [%] | inhibition (MAP3K7 TAB1 (human)) [%] | inhibition (MARK4 (human)) [%] | inhibition (FGFR1 (human)) [%] | inhibition (CLK2 (human)) [%] | inhibition (IRAK4 (human)) [%] | inhibition (RPS6KA1 KD1 KD2 (human)) [%] | inhibition (STK16 (human)) [%] | inhibition (BRSK1 (human)) [%] | inhibition (MST4 (human)) [%] | inhibition (MAPK8 (human)) [%] | inhibition (MAP2K2 (human)) [%] | inhibition (TAOK1 (human)) [%] | inhibition (ROCK2 (rat)) [%] | inhibition (PLK1 (human)) [%] | inhibition (MAPK12 (human)) [%] | Structure (SMILES) | further results
1 | 18 | 0% and 19% | 15 | 24 | 17 | 3 | 24 | 42 | 33 | 18 | 21 | 6 | 14 | 21 | 7 | 28 | 12 | 19 | 8 | 0 | Cc1cccc(C)c1-c1cn2nc(N)nc2cn1 | inhibition (MAPK11 (human)): 20%; inhibition (EPHA4 (human)): 38%; inhibition (PRKCZ (human)): 6%; inhibition (EEF2K (human)): 13%; inhibition (EPHB4 (human)): 14%; inhibition (LCK (mouse)): 37%; inhibition (EPHB3 (human)): 35%; inhibition (GCK (human)): 59%; inhibition (PAK6 (human)): 11%; inhibition (MARK3 (human)): 0%; inhibition (STK3 (human)): 9%; inhibition (PTK6 (human)): 15%; inhibition (MKNK1 (human)): 24%; inhibition (MAP3K5 (human)): 15%; inhibition (EPHA2 (human)): 11%
2 | 0 | 0% and 14% | 32 | 20 | 0 | 2 | 26 | 25 | 1 | 0 | 19 | 3 | 10 | 0 | 2 | 0 | 0 | 7 | 8 | 0 | COc1ccc(NC(=S)Nc2cnc3[nH]cnn3c2=O)cn1 | inhibition (MAPK11 (human)): 0%; inhibition (EPHA4 (human)): 22%; inhibition (PRKCZ (human)): 0%; inhibition (EEF2K (human)): 10%; inhibition (EPHB4 (human)): 1%; inhibition (LCK (mouse)): 0%; inhibition (EPHB3 (human)): 8%; inhibition (GCK (human)): 0%; inhibition (PAK6 (human)): 0%; inhibition (MARK3 (human)): 17%; inhibition (STK3 (human)): 0%; inhibition (PTK6 (human)): 9%; inhibition (MKNK1 (human)): 3%; inhibition (MAP3K5 (human)): 16%; inhibition (EPHA2 (human)): 0%
3 | 0 | 0% and 2% | 16 | 23 | 3 | 26 | 13 | 14 | 0 | 19 | 23 | 21 | 14 | 7 | 0 | 0 | 0 | 11 | 10 | 0 | O=C(Nc1cnc2[nH]ccn2c1=O)c1ccccc1 | inhibition (MAPK11 (human)): 23%; inhibition (EPHA4 (human)): 16%; inhibition (PRKCZ (human)): 3%; inhibition (EEF2K (human)): 11%; inhibition (EPHB4 (human)): 5%; inhibition (LCK (mouse)): 23%; inhibition (EPHB3 (human)): 5%; inhibition (GCK (human)): 6%; inhibition (PAK6 (human)): 6%; inhibition (MARK3 (human)): 12%; inhibition (STK3 (human)): 21%; inhibition (PTK6 (human)): 30%; inhibition (MKNK1 (human)): 0%; inhibition (MAP3K5 (human)): 0%; inhibition (EPHA2 (human)): 31%
